# Results from PubChem BioAssay (NCI).
#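 In this assay, cells in 96-well plates receive the compound at five concentrations for 48 hours. Endpoints are linearly interpolated between the surrounding concentrations. TGI denotes the concentration required for complete inhibition of growth.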
# How the values were obtained:
# Test in all cases: NCI tumour cell line growth inhibition, 48 h
# A498 renal = tested on: A498 renal
# A549 NSCLC = tested on: A549 NSCLC
# ACHN renal = tested on: ACHN renal
# CCRF-CEM leukemia = tested on: CCRF-CEM leukemia
# COLO 205 colon = tested on: COLO 205 colon
# DLD-1 colon = tested on: DLD-1 colon
# DMS 114 small cell lung = tested on: DMS 114 small cell lung
# DMS 273 small cell lung = tested on: DMS 273 small cell lung
# EKVX NSCLC = tested on: EKVX NSCLC
# HCC-2998 colon = tested on: HCC-2998 colon
# HCT-116 colon = tested on: HCT-116 colon
# HCT-15 colon = tested on: HCT-15 colon
# HL-60(TB) leukemia = tested on: HL-60(TB) leukemia
# HOP-18 NSCLC = tested on: HOP-18 NSCLC
# HOP-92 NSCLC = tested on: HOP-92 NSCLC
# HT29 colon = tested on: HT29 colon
# IGROV1 ovarian = tested on: IGROV1 ovarian
# KM12 colon = tested on: KM12 colon
# KM20L2 colon = tested on: KM20L2 colon
# LOX IMVI melanoma = tested on: LOX IMVI melanoma
# LXFL 529 NSCLC = tested on: LXFL 529 NSCLC
# M14 melanoma = tested on: M14 melanoma
# M19-MEL melanoma = tested on: M19-MEL melanoma
# MALME-3M melanoma = tested on: MALME-3M melanoma
# MOLT-4 leukemia = tested on: MOLT-4 leukemia
# NCI-H23 lung = tested on: NCI-H23 lung
# NCI-H460 lung = tested on: NCI-H460 lung
# NCI-H522 lung = tested on: NCI-H522 lung
# OVCAR-3 ovarian = tested on: OVCAR-3 ovarian
# OVCAR-5 ovarian = tested on: OVCAR-5 ovarian
# OVCAR-8 ovarian = tested on: OVCAR-8 ovarian
# RXF 393 renal = tested on: RXF 393 renal
# RXF-631 renal = tested on: RXF-631 renal
# SF-268 CNS = tested on: SF-268 CNS
# SF-295 CNS = tested on: SF-295 CNS
# SF-539 CNS = tested on: SF-539 CNS
# SK-MEL-2 melanoma = tested on: SK-MEL-2 melanoma
# SK-MEL-28 melanoma = tested on: SK-MEL-28 melanoma
# SK-OV-3 ovarian = tested on: SK-OV-3 ovarian
# SN12C renal = tested on: SN12C renal
# SNB-19 CNS = tested on: SNB-19 CNS
# SNB-75 CNS = tested on: SNB-75 CNS
# SR leukemia = tested on: SR leukemia
# SW-620 colon = tested on: SW-620 colon
# TK-10 renal = tested on: TK-10 renal
# U251 CNS = tested on: U251 CNS
# UACC-257 melanoma = tested on: UACC-257 melanoma
# UACC-62 melanoma = tested on: UACC-62 melanoma
# UO-31 renal = tested on: UO-31 renal
# XF 498 CNS = tested on: XF 498 CNS
# CAKI-1 renal = tested on: CAKI-1 renal
# HOP-62 NSCLC = tested on: HOP-62 NSCLC
# K-562 leukemia = tested on: K-562 leukemia
# MCF7 breast = tested on: MCF7 breast
# NCI-H226 lung = tested on: NCI-H226 lung
# NCI/ADR-RES ovarian = tested on: NCI/ADR-RES ovarian
# OVCAR-4 ovarian = tested on: OVCAR-4 ovarian
# P388 leukemia = tested on: P388 leukemia
# P388/ADR leukemia = tested on: P388/ADR leukemia
# RPMI-8226 leukemia = tested on: RPMI-8226 leukemia
# SK-MEL-5 melanoma = tested on: SK-MEL-5 melanoma
# SN12K1 renal = tested on: SN12K1 renal
# SNB-78 CNS = tested on: SNB-78 CNS
structure (smiles),measurement,setting,value
COC[C@@H]1Cc2cc(OC)c3c(c2[C@H](c2ccc(OC)c(OC)c2)[C@H]1COC)OCO3,TGI,A498 renal,> 100000 nM
same,TGI,A549 NSCLC,> 100000 nM
same,TGI,ACHN renal,> 100000 nM
same,TGI,CCRF-CEM leukemia,> 100000 nM
same,TGI,COLO 205 colon,> 100000 nM
same,TGI,DLD-1 colon,> 100000 nM
same,TGI,DMS 114 small cell lung,> 100000 nM
same,TGI,DMS 273 small cell lung,> 100000 nM
same,TGI,EKVX NSCLC,> 100000 nM
same,TGI,HCC-2998 colon,> 100000 nM
same,TGI,HCT-116 colon,> 100000 nM
same,TGI,HCT-15 colon,> 100000 nM
same,TGI,HL-60(TB) leukemia,> 100000 nM
same,TGI,HOP-18 NSCLC,> 100000 nM
same,TGI,HOP-92 NSCLC,> 100000 nM
same,TGI,HT29 colon,> 100000 nM
same,TGI,IGROV1 ovarian,> 100000 nM
same,TGI,KM12 colon,> 100000 nM
same,TGI,KM20L2 colon,> 100000 nM
same,TGI,LOX IMVI melanoma,> 100000 nM
same,TGI,LXFL 529 NSCLC,> 100000 nM
same,TGI,M14 melanoma,> 100000 nM
same,TGI,M19-MEL melanoma,> 100000 nM
same,TGI,MALME-3M melanoma,> 100000 nM
same,TGI,MOLT-4 leukemia,> 100000 nM
same,TGI,NCI-H23 lung,> 100000 nM
same,TGI,NCI-H460 lung,> 100000 nM
same,TGI,NCI-H522 lung,> 100000 nM
same,TGI,OVCAR-3 ovarian,> 100000 nM
same,TGI,OVCAR-5 ovarian,> 100000 nM
same,TGI,OVCAR-8 ovarian,> 100000 nM
same,TGI,RXF 393 renal,> 100000 nM
same,TGI,RXF-631 renal,> 100000 nM
same,TGI,SF-268 CNS,> 100000 nM
same,TGI,SF-295 CNS,> 100000 nM
same,TGI,SF-539 CNS,> 100000 nM
same,TGI,SK-MEL-2 melanoma,> 100000 nM
same,TGI,SK-MEL-28 melanoma,> 100000 nM
same,TGI,SK-OV-3 ovarian,> 100000 nM
same,TGI,SN12C renal,> 100000 nM
same,TGI,SNB-19 CNS,> 100000 nM
same,TGI,SNB-75 CNS,83200 nM
same,TGI,SR leukemia,> 100000 nM
same,TGI,SW-620 colon,> 100000 nM
same,TGI,TK-10 renal,> 100000 nM
same,TGI,U251 CNS,> 100000 nM
same,TGI,UACC-257 melanoma,> 100000 nM
same,TGI,UACC-62 melanoma,> 100000 nM
same,TGI,UO-31 renal,> 100000 nM
same,TGI,XF 498 CNS,> 100000 nM
CC1C(O)[C@@]2(OC[C@@]34C(=O)CC5(O)[C@H](CCC6Cc7nc8c(nc7C[C@]65C)CC5CC[C@@H]6C7=C[C@H]9O[C@@]%10(O[C@@](C)(CO)C[C@@H]%10O)C(C)[C@@]9(O)[C@]7(C)[C@@H](O)CC6[C@]5(C)C8)C3=CC[C@H]4C2C)OC1(C)C (stereo not given in full),TGI,A498 renal,1.05 nM
same,TGI,A549 NSCLC,494 nM
same,TGI,CAKI-1 renal,977 nM
same,TGI,CCRF-CEM leukemia,96.6 nM
same,TGI,COLO 205 colon,361 nM
same,TGI,DLD-1 colon,652 nM
same,TGI,DMS 114 small cell lung,94.2 nM
same,TGI,DMS 273 small cell lung,0.455 nM
same,TGI,EKVX NSCLC,499 nM
same,TGI,HCC-2998 colon,> 3550 nM
same,TGI,HCT-116 colon,542 nM
same,TGI,HCT-15 colon,379 nM
same,TGI,HL-60(TB) leukemia,536 nM
same,TGI,HOP-18 NSCLC,3430 nM
same,TGI,HOP-62 NSCLC,1.5 nM
same,TGI,HOP-92 NSCLC,3250 nM
same,TGI,HT29 colon,61 nM
same,TGI,IGROV1 ovarian,> 3550 nM
same,TGI,K-562 leukemia,79.8 nM
same,TGI,KM12 colon,> 3550 nM
same,TGI,KM20L2 colon,66.9 nM
same,TGI,LOX IMVI melanoma,864 nM
same,TGI,M19-MEL melanoma,> 3550 nM
same,TGI,MALME-3M melanoma,27.5 nM
same,TGI,MCF7 breast,625 nM
same,TGI,MOLT-4 leukemia,< 0.355 nM
same,TGI,NCI-H226 lung,> 3550 nM
same,TGI,NCI-H23 lung,435 nM
same,TGI,NCI-H460 lung,93.7 nM
same,TGI,NCI-H522 lung,83 nM
same,TGI,NCI/ADR-RES ovarian,> 3550 nM
same,TGI,OVCAR-3 ovarian,> 3550 nM
same,TGI,OVCAR-4 ovarian,> 3550 nM
same,TGI,OVCAR-5 ovarian,79.5 nM
same,TGI,OVCAR-8 ovarian,> 3550 nM
same,TGI,P388 leukemia,> 3550 nM
same,TGI,P388/ADR leukemia,26.6 nM
same,TGI,RPMI-8226 leukemia,< 0.355 nM
same,TGI,RXF 393 renal,< 0.355 nM
same,TGI,SF-268 CNS,370 nM
same,TGI,SF-295 CNS,< 0.355 nM
same,TGI,SF-539 CNS,4.87 nM
same,TGI,SK-MEL-2 melanoma,14.1 nM
same,TGI,SK-MEL-5 melanoma,415 nM
same,TGI,SK-OV-3 ovarian,274 nM
same,TGI,SN12C renal,> 3550 nM
same,TGI,SN12K1 renal,> 3550 nM
same,TGI,SNB-19 CNS,206 nM
same,TGI,SNB-75 CNS,215 nM
same,TGI,SNB-78 CNS,3440 nM
same,TGI,SW-620 colon,43.3 nM
same,TGI,U251 CNS,101 nM
same,TGI,UACC-257 melanoma,21.2 nM
same,TGI,UACC-62 melanoma,4.89 nM
same,TGI,UO-31 renal,134 nM
